Measured values from publication PMC12073402, “A Selective MAP3K1 Inhibitor Facilitates Discovery of NPM1 as a Member of the Network” (Molecules, 2025).

Legend:
Assay in all cases: KiNativ kinome profiling in PANC-1 lysate
Format in all cases: binding
MAP3K3 = biological target: T1, MAP3K3 (Homo sapiens, UniProt Q99759); conditions: Lys1
T1 construct: endogenous in cells; host or cells: PANC-1 cell lysate
Text: (§1) To assess target engagement and selectivity, we opted to conduct a kinome screen (KiNativ) in PANC-1 cell lysates. This chemical proteomics (chemoproteomics) methodology allows for the evaluation of small-molecule binding to protein kinases in native systems such as cell lysates. KiNativ utilizes a soluble chemical probe comprising ATP linked to biotin through an acyl-phosphate bond. The probe covalently modifies conserved lysine residues found in the ATP binding site of essentially all protein kinases (Figure 2A). To profile a kinase inhibitor, cell lysates are treated with a vehicle control or inhibitor prior to addition of the desthiobiotin ATP probe. The ATP probe occupies the ATP binding site in the kinase, which enables the conserved lysines to be biotinylated. […] The cell lysates are digested with a protease (trypsin), biotinylated peptides are affinity-enriched on streptavidin beads, and the labeled peptides are analyzed by liquid chromatography–tandem MS (Figure 2B). If an inhibitor binds to a kinase, it competes with the ATP, thus resulting in a loss of that kinase-associated peptide signal, allowing for the quantitative measurement of inhibitor binding. Unlike recombinant enzyme assays, KiNativ IC50 values are a direct measure of active site binding instead of enzymatic activity.
(§2) Kinome profiling quantified the activity of 51-106 against >300 kinases in the PANC-1 cells. The results summarized in Figure 2C are the average of duplicate control and duplicate treated samples with 5 μM of 51-106 or DMSO.
(§3) KiNativ assay with 51-106.
(§4) ATP Loop: ATP binding loop
(§5) Activation Loop: Activation loop
(§6) ATP: ATP site in non-canonical kinase (e.g. lipid kinase)
(§7) Protein Kinase Domain: Other lysine within kinase domain, possibly not in ATP binding site
(§8) Other: Labeling of residue outside of the protein kinase domain, possibly not in ATP binding site
(§9) No change. NB = No Binding (≤ 0)
(§10) >100% increase in MS signal (>2 fold increase)
(§11) Data points inhibited […] & not considered significant are left uncolored
(§12) Note: This KiNativ dataset is the result of an analysis of duplicate treated samples and control samples.
(§13) The % changes in MS signals being reported are statistically significant (Student T -test score < 0.04)

ROCK1 = biological target: T2, ROCK1 (Homo sapiens, UniProt Q13464); conditions: Other
T2 construct: endogenous in cells; host or cells: PANC-1 cell lysate
Text: as §1, §2, §3, §4, §5, §6, §7, §8, §9, §10, §11, §12, §13

ULK1 = biological target: T3, ULK1 (Homo sapiens, UniProt O75385); conditions: Lys2
T3 construct: endogenous in cells; host or cells: PANC-1 cell lysate
Text: as §1, §2, §3, §4, §5, §6, §7, §8, §9, §10, §11, §12, §13

CK1a = biological target: T4, CK1a (Homo sapiens, UniProt P48729); conditions: Lys2
T4 construct: endogenous in cells; host or cells: PANC-1 cell lysate
T4 sequence (P48729 whole entry): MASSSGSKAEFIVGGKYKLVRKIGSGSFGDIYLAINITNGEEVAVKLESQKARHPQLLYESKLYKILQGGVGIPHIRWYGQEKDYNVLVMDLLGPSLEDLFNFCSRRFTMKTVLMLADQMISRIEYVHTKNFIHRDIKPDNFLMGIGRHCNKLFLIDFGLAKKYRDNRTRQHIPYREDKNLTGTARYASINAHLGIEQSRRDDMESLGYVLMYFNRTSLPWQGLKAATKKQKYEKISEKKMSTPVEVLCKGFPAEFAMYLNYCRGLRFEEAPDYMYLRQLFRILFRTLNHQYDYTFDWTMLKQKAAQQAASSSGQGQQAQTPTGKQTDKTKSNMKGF
Text: as §1, §2, §3, §4, §5, §6, §7, §8, §9, §10, §11, §12, §13

EphB2 = biological target: T5, EphB2 (Homo sapiens, UniProt P29323); conditions: ATP Loop
T5 construct: endogenous in cells; host or cells: PANC-1 lysate
T5 sequence (P29323 19-1055): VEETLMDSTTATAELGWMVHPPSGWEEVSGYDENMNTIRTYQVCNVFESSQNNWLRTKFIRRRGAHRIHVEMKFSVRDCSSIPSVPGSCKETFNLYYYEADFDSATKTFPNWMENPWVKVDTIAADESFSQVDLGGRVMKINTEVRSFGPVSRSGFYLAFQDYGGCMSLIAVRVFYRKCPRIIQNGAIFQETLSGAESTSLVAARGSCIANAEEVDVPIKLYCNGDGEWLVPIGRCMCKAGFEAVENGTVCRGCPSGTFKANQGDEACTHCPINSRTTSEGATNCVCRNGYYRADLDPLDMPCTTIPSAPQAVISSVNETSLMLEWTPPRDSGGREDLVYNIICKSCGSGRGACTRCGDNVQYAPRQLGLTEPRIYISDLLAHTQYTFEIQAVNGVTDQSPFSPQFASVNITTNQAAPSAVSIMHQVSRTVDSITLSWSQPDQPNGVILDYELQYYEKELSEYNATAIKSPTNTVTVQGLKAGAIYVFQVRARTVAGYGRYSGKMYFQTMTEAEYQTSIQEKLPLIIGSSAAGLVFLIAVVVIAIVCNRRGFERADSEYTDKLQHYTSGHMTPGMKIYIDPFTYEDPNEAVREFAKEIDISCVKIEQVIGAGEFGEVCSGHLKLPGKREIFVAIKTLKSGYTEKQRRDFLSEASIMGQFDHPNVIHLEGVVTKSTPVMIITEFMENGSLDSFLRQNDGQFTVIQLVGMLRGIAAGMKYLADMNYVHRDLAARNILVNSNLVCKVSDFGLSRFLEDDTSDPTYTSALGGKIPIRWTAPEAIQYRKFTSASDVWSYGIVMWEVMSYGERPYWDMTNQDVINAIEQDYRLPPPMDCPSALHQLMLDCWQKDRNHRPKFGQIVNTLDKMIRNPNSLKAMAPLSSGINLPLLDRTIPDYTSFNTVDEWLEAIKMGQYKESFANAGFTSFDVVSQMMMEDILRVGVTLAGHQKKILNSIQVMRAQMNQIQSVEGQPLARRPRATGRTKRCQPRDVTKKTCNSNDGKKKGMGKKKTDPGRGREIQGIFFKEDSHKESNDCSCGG
Text: as §1, §2, §3, §4, §5, §6, §7, §8, §9, §10, §11, §12, §13

PI4K2B = biological target: T6, PI4K2B (Homo sapiens, UniProt Q8TCG2); conditions: ATP
T6 construct: endogenous in cells; host or cells: PANC-1 cell lysate
Text: as §1, §2, §3, §4, §5, §6, §7, §8, §9, §10, §11, §12, §13

CDC2 = biological target: T7, CDC2 (Homo sapiens, UniProt P06493)
T7 construct: endogenous in cells; host or cells: PANC-1 cell lysate
T7 sequence (P06493 whole entry): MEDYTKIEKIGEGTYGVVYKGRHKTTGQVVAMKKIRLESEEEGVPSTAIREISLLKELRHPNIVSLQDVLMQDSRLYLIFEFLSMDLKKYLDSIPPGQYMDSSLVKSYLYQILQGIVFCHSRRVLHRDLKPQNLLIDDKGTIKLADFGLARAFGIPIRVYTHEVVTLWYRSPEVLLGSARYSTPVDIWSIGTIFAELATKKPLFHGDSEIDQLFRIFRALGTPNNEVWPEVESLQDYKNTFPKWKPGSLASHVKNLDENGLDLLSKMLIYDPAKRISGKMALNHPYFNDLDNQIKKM
Text: as §1, §2, §3, §4, §5, §6, §7, §8, §9, §10, §11, §12, §13

SGK3 = biological target: T8, SGK3 (Homo sapiens, UniProt Q96BR1); conditions: Lys1
T8 construct: endogenous in cells; host or cells: PANC-1 cell lysate
T8 sequence (Q96BR1 whole entry): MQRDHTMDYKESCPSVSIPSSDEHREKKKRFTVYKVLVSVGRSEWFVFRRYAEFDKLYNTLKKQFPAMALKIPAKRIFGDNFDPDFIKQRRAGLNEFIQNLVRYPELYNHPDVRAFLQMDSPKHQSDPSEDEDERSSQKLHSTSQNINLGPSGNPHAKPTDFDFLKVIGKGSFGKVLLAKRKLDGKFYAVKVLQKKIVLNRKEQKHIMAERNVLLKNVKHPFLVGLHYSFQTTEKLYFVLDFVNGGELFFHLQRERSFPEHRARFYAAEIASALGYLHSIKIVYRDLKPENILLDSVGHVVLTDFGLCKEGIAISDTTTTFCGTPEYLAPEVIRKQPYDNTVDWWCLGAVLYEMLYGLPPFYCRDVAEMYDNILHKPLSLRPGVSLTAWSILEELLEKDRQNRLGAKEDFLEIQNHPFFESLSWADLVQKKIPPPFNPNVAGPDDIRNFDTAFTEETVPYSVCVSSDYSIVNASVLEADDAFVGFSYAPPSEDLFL
Text: as §1, §2, §3, §4, §5, §6, §7, §8, §9, §10, §11, §12, §13

CDK11 = biological target: T9, CDK11 (Homo sapiens, UniProt Q9BWU1); conditions: Lys1
T9 construct: endogenous in cells; host or cells: PANC-1 cell lysate
T9 sequence (Q9BWU1 whole entry): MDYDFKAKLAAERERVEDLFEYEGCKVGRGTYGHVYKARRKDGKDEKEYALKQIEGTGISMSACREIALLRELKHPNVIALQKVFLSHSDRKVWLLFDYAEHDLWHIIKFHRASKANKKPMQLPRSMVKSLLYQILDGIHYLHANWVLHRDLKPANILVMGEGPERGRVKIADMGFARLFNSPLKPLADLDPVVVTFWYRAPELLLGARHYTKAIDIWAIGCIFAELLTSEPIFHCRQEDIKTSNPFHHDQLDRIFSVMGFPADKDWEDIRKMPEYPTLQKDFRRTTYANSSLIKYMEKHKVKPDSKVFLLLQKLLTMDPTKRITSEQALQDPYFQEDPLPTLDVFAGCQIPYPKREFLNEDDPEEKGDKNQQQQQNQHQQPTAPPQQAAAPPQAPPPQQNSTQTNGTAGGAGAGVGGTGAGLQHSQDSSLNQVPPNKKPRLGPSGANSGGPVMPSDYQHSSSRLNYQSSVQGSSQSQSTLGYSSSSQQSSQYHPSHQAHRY
Text: as §1, §2, §3, §4, §5, §6, §7, §8, §9, §10, §11, §12, §13

IRAK4 = biological target: T10, IRAK4 (Homo sapiens, UniProt Q9NWZ3)
T10 construct: we opted to conduct a kinome screen (KiNativ) in PANC-1 cell lysates; endogenous in cells; host or cells: PANC-1 cell lysate
T10 sequence (Q9NWZ3 whole entry): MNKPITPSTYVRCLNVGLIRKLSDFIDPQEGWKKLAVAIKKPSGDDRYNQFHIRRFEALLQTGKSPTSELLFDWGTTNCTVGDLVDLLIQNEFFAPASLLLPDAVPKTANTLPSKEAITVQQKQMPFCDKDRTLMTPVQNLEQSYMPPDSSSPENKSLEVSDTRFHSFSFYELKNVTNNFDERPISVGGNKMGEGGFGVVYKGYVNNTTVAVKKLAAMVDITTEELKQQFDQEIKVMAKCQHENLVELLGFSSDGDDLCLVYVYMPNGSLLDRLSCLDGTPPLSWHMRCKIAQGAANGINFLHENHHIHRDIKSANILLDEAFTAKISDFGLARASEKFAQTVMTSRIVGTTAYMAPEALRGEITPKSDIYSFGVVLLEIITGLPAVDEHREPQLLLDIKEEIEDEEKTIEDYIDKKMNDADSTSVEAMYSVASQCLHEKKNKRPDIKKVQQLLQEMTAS
Text: as §1, §2, §3, §4, §5, §6, §7, §8, §9, §10, §11, §12, §13

[1] = system: ZC1/HGK, ZC2/TNIK, ZC3/MINK; conditions: 5 µM; Lys2; DIKGQNVLLTENAEVK
Text: as §1, §2, §3, §4, §5, §6, §7, §8, §9, §10, §11, §12, §13

FRK = biological target: T11, FRK (Homo sapiens, UniProt P42685); conditions: ATP Loop
T11 construct: endogenous in cells; host or cells: PANC-1 lysate
Text: as §1, §2, §3, §4, §5, §6, §7, §8, §9, §10, §11, §12, §13

PIK3CD = biological target: T12, PIK3CD (Homo sapiens, UniProt O00329); conditions: ATP
T12 construct: endogenous in cells; host or cells: PANC-1 cell lysate
Text: as §1, §2, §3, §4, §5, §6, §7, §8, §9, §10, §11, §12, §13

PEK = biological target: T13, PEK (Homo sapiens, UniProt Q9NZJ5); conditions: Lys2
T13 construct: endogenous in cells; host or cells: PANC-1 cell lysate
Text: as §1, §2, §3, §4, §5, §6, §7, §8, §9, §10, §11, §12, §13

MLK4 = biological target: T14, MLK4 (Homo sapiens, UniProt Q5TCX8); conditions: Lys2
T14 construct: endogenous in cells; host or cells: PANC-1
T14 sequence (Q5TCX8 whole entry): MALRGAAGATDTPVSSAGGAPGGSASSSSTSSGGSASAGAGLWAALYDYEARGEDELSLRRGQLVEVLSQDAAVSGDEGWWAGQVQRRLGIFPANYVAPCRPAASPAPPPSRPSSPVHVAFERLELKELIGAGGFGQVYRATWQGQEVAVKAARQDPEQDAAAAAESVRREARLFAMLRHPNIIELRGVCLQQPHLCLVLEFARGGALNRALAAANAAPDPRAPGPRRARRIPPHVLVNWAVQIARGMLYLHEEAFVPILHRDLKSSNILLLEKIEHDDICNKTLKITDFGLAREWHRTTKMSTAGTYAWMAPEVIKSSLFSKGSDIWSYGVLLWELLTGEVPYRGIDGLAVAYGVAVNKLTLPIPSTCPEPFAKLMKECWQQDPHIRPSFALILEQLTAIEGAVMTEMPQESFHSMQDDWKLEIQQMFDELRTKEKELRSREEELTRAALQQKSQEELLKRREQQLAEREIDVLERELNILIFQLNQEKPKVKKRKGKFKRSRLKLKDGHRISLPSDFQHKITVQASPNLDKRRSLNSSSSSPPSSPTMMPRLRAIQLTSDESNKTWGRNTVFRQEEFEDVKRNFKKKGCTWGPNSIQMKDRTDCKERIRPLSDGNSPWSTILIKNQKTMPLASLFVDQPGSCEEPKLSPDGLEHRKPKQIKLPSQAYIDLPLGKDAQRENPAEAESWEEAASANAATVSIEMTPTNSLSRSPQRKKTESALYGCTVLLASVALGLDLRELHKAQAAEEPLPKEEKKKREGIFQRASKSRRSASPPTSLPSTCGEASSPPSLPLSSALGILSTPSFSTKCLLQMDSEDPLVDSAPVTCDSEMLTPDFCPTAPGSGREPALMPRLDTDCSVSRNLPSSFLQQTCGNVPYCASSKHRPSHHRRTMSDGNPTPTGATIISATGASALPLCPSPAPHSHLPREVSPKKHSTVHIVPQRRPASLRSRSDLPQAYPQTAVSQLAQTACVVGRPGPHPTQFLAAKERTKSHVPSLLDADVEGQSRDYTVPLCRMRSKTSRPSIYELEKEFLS
Text: as §1, §2, §3, §4, §5, §6, §7, §8, §9, §10, §11, §12, §13

p38d, p38g = conditions: 5 µM; Lys2; DLKPGNLAVNEDCELK
Text: as §1, §2, §3, §4, §5, §6, §7, §8, §9, §10, §11, §12, §13

MST3 = biological target: T15, MST3 (Homo sapiens, UniProt Q9Y6E0); conditions: Lys2
T15 construct: endogenous in cells; host or cells: PANC-1
Text: as §1, §2, §3, §4, §5, §6, §7, §8, §9, §10, §11, §12, §13

MLKL = biological target: T16, MLKL (Homo sapiens, UniProt Q8NB16); conditions: Lys1
T16 construct: endogenous in cells; host or cells: PANC-1
Text: as §1, §2, §3, §4, §5, §6, §7, §8, §9, §10, §11, §12, §13

T1 sequence (Q99759 whole entry): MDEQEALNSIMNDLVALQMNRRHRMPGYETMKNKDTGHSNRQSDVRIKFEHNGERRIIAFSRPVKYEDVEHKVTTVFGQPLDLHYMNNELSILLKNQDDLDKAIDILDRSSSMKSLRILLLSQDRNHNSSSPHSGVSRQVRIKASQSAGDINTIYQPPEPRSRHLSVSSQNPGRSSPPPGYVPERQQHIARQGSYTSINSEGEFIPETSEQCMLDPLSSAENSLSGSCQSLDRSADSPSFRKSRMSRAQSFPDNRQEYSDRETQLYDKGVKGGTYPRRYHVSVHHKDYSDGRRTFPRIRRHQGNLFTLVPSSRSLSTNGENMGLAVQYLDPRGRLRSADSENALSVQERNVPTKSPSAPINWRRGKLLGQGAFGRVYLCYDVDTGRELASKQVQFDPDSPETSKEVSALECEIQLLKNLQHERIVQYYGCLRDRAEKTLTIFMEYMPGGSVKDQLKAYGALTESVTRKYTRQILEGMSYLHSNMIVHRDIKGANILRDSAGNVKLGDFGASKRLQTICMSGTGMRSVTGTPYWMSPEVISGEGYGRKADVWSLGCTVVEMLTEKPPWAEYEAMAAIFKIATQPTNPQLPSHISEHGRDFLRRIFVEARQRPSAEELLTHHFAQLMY

Structure (SMILES): Cn1cc(-c2cnc3ccc(NC(=O)Nc4ccc(F)c(C(F)(F)F)c4)cc3n2)cn1 [51-106, 1-(4-Fluoro-3-(trifluoromethyl)phenyl)-3-(3-(1-methyl-1H-pyrazol-4-yl)quinoxalin-6-yl)urea]
- inhibition at 5 µM (MAP3K3): 11.4%
- inhibition at 5 µM (ROCK1): ≤ 0%
- inhibition at 5 µM (ULK1): ≤ 0%
- inhibition at 5 µM (CK1a): 11.1%
- inhibition at 5 µM (EphB2): ≤ 0%
- inhibition at 5 µM (PI4K2B): 6.4%
- inhibition at 5 µM (CDC2; Lys1, TTGQVVAMKK): 20.3%
- inhibition at 5 µM (CDC2; Lys2, DLKPQNLLIDDK): ≤ 0%
- inhibition at 5 µM (CDC2; Protein Kinase Domain, KPLFHGDSEIDQLFR): ≤ 0%
- inhibition at 5 µM (SGK3): ≤ 0%
- inhibition at 5 µM (CDK11): 4%
- inhibition at 5 µM (IRAK4; Lys1, GYVNNTTVAVKK): ≤ 0%
- inhibition at 5 µM (IRAK4; Lys2, DIKSANILLDEAFTAK): 1.2%
- % Inhibition [1]: NB (NB = No Binding (≤ 0))
- inhibition at 5 µM (FRK): ≤ 0%
- inhibition at 5 µM (PIK3CD): 1.8%
- inhibition at 5 µM (PEK): 10.9%
- inhibition at 5 µM (MLK4): ≤ 0%
- % Inhibition (p38d, p38g): NB (NB = No Binding (≤ 0))
- inhibition at 5 µM (MST3): 4.2%
- inhibition at 5 µM (MLKL): ≤ 0%
